Test results from patent US20230174554A1, “SOLID FORM OF MACROCYCLIC COMPOUND, PREPARATION THEREFOR AND USE THEREOF” (Shenzhen TargetRx. Inc., priority 2020, published 2023).
≈ marks a conversion by molar mass, not a printed value. Each block holds one molecule with its values, some of them ahead of it.

How the values were obtained:
Format in all cases: physicochemical
[1] = Competitive slurrying testing at room temperature (trans-crystallization); conditions: isobutanol, isopropanol and methyl tert-butyl ether, one day
Protocol: 10 mg of compound A crystal form I, crystal form IV, crystal form V and crystal form VI were added to 500 μL of three different solvent systems (isobutanol, isopropanol and methyl tert-butyl ether), respectively. The mixture was slurried at room temperature for one day. The solids were dried at 50° C. under vacuum overnight and characterized by XRPD.

[2] = Heating study to 190° C. with XRPD (trans-crystallization); conditions: heated to 190° C.
Protocol: A certain amount of compound A crystal form V and VI were weighed, heated to 190° C. and then characterized by XRPD.

[3] = Accelerated stability study of the free base and crystalline salts (40° C./75% RH and 60° C., HPLC and XRPD)
Protocol: The crystals were tested for HPLC and XRPD in different time points.

[4] = Solubility of the starting material (compound A crystal form I) in different solvents
[5] = Stability influencing factor tests of compound A crystal form I (high temperature, high humidity, illumination)
Protocol: Stability influencing factor tests were carried out on the samples of compound A crystal form I. The corresponding placement conditions and test results are listed in Table 5.

[6] = Dynamic moisture adsorption and desorption analysis (DVS), hygroscopicity, XRPD after test
Protocol: The samples were tested for hygroscopicity using DVS Intrinsic (SMS, UK). 30-50 mg of a sample was placed into a sample pan, and the change of sample mass with humidity at 25° C. was recorded. The instrument parameters were:
After the hygroscopicity test was completed, the crystal form of the sample was tested by XRPD.

[7] = Solubility and stability of the free base and crystalline salts in water, SGF, FaSSIF and FeSSIF; conditions: for Crystal form / crystallinity in the vehicle: XRPD
Excerpt: The solubility and stability of compound A crystal form, compound A maleate crystal form I and compound A acetate crystal form I in water, SGF (simulated gastric fluid), FaSSIF (simulated intestinal fluid in fasted state) and FeSSIF (simulated intestinal fluid in fed state) were studied.

[8] = High humidity (92.5% RH/25° C.), 0 days
[9] = High humidity (92.5% RH/25° C.), 5 days
[10] = High humidity (92.5% RH/25° C.), 10 days
[11] = High humidity (92.5% RH/25° C.), 37 days
[12] = High temperature (60° C.), 0 days
[13] = High temperature (60° C.), 5 days
[14] = High temperature (60° C.), 10 days
[15] = High temperature (60° C.), 37 days
[16] = Illumination (1.2*10^6 Lux · hr, 200 w · hr/m^2), 0 days
[17] = Illumination (1.2*10^6 Lux · hr, 200 w · hr/m^2), 5 days
[18] = Illumination (1.2*10^6 Lux · hr, 200 w · hr/m^2), 10 days
[19] = FaSSIF (simulated intestinal fluid in fasted state), 37 °C, fassif, thermodynamic from solid, sample 10 mg/ml
[20] = FeSSIF (simulated intestinal fluid in fed state), 37 °C, fessif, thermodynamic from solid, sample 10 mg/ml
[21] = SGF (simulated gastric fluid), 37 °C, simulated gastric fluid, thermodynamic from solid, SGF, sample 10 mg/ml
[22] = water, thermodynamic from solid, H2O, room temperature, sample 5 mg/ml

Trans-crystallization on competitive slurrying [1]: trans-crystallized to crystal form I
SMILES: [2H]C([2H])([2H])n1nc2c(c1C#N)-c1cnc(N)c(c1)O[C@H](C)c1cc(F)ccc1C(=O)N(C)C2 [compound A crystal form IV, (10R)-7-amino-12-fluoro-2-(methyl-d3)-10,16-dimethyl-15-oxo-10,15,16,17-tetrahydro-2H-8,4-(metheno)pyrazolo[4,3-h][2,5,11]benzoxadiazacyclotetradecine-3-carbonitrile]

Crystal form after heating [2]: transformed into crystal form I
SMILES: [2H]C([2H])([2H])n1nc2c(c1C#N)-c1cnc(N)c(c1)O[C@H](C)c1cc(F)ccc1C(=O)N(C)C2 [compound A crystal form V, (10R)-7-amino-12-fluoro-2-(methyl-d3)-10,16-dimethyl-15-oxo-10,15,16,17-tetrahydro-2H-8,4-(metheno)pyrazolo[4,3-h][2,5,11]benzoxadiazacyclotetradecine-3-carbonitrile]

Purity % ([3]; 0 days; HPLC): 99.2% | Crystal form ([3]; 0 days; XRPD): Unchanged | Crystal form ([3]; 40° C./75% RH, 7 days, XRPD): not changed | Purity ([3]; 40° C./75% RH, 7 days; HPLC): not changed | Purity % ([3]; 40° C./75% RH, 7 days; HPLC): 99.4% | Crystal form ([3]; 40° C./75% RH, 7 days; XRPD): Unchanged | Crystal form ([3]; 60° C., 7 days, XRPD): not changed | Purity ([3]; 60° C., 7 days; HPLC): not changed | Purity % ([3]; 60° C., 7 days; HPLC): 99.3% | Crystal form ([3]; 60° C., 7 days; XRPD): Unchanged | Solubility ([4]; Acetone): ~246000 µg/mL (≈ 601 mM) | Solubility ([4]; Acetone, listed as starting material): greater than 100 mg/mL | Solubility ([4]; Acetonitrile): ~183000 µg/mL (≈ 447 mM) | Solubility ([4]; Butanone): ~173000 µg/mL (≈ 423 mM) | Solubility ([4]; Dichloromethane): ~240000 µg/mL (≈ 586 mM) | Solubility ([4]; Dichloromethane, listed as starting material): greater than 100 mg/mL | Solubility ([4]; Ethanol): ~21000 µg/mL (≈ 51.3 mM) | Solubility ([4]; Ethyl acetate): ~100000 µg/mL (≈ 244 mM) | Solubility ([4]; Isobutanol): ~1700 µg/mL (≈ 4.15 mM) | Solubility ([4]; Isopropanol): ~2500 µg/mL (≈ 6.11 mM) | Solubility ([4]; Isopropanol, listed as starting material): 1000 to 2000 µg/mL | Solubility ([4]; Isopropyl acetate): ~22000 µg/mL (≈ 53.7 mM) | Solubility ([4]; Methanol): ~190000 µg/mL (≈ 464 mM) | Solubility ([4]; Methyl tert-butyl ether): ~2500 µg/mL (≈ 6.11 mM) | Solubility ([4]; Methyl tert-butyl ether, listed as starting material): 1000 to 2000 µg/mL | Solubility ([4]; Tetrahydrofuran): ~215000 µg/mL (≈ 525 mM) | Solubility ([4]; Tetrahydrofuran, listed as starting material): greater than 100 mg/mL | Solubility ([4]; acetonitrile, organic solvent or mixture, thermodynamic from solid, Acetonitrile, read-out: Solubility): > 100000 µg/mL | Solubility ([4]; butanone, organic solvent or mixture, thermodynamic from solid, Butanone, read-out: Solubility): > 100000 µg/mL | Solubility ([4]; ethanol, organic solvent or mixture, thermodynamic from solid, Ethanol, read-out: Solubility): ~20000 µg/mL (≈ 48.8 mM) | Solubility ([4]; ethyl acetate, organic solvent or mixture, thermodynamic from solid, Ethyl acetate, read-out: Solubility): > 100000 µg/mL | Solubility ([4]; isobutanol, organic solvent or mixture, thermodynamic from solid, Isobutanol, read-out: Solubility): 1000 to 2000 µg/mL (≈ 2.44 to 4.88 mM) | Solubility ([4]; isopropyl acetate, organic solvent or mixture, thermodynamic from solid, Isopropyl acetate, read-out: Solubility): ~20000 µg/mL (≈ 48.8 mM) | Solubility ([4]; methanol, organic solvent or mixture, thermodynamic from solid, Methanol, read-out: Solubility): > 100000 µg/mL | Solubility ([4]; water): ~1000 µg/mL (≈ 2.44 mM) | Solubility ([4]; water, thermodynamic from solid, Water, read-out: Solubility): 1000 to 2000 µg/mL (≈ 2.44 to 4.88 mM) | Content [5, 8]: 99.9% | Shape [5, 8]: White solid | Total impurity content [5, 8]: <0.05% | Content [5, 9]: 99.5% | Shape [5, 9]: White solid | Total impurity content [5, 9]: <0.05% | Content [5, 10]: 99.7% | Shape [5, 10]: White solid | Total impurity content [5, 10]: <0.05% | Content [5, 11]: 99.4% | Shape [5, 11]: White solid | Total impurity content [5, 11]: <0.05% | Content [5, 12]: 99.9% | Shape [5, 12]: White solid | Total impurity content [5, 12]: <0.05% | Content [5, 13]: 98.8% | Shape [5, 13]: White solid | Total impurity content [5, 13]: <0.05% | Content [5, 14]: 100.4% | Shape [5, 14]: White solid | Total impurity content [5, 14]: <0.05% | Content [5, 15]: 99.8% | Total impurity content [5, 15]: <0.05% | Content [5, 16]: 99.9% | Shape [5, 16]: White solid | Total impurity content [5, 16]: <0.05% | Content [5, 17]: 98.7% | Total impurity content [5, 17]: <0.05% | Content [5, 18]: 99.1% | Total impurity content [5, 18]: <0.05% | Crystal form before and after the DVS test ([6]; XRPD): not changed | DVS weight gain ([6]; humidity increased from 0% RH to 80% RH, 25° C.): 0.17% | solubility at 0.5 h [7, 19]: 170 µg/mL | solubility at 24 h [7, 19]: 110 µg/mL | Solubility ([7]; FaSSIF (simulated intestinal fluid in fasted state), fassif, thermodynamic from solid, FaSSIF (simulated intestinal fluid in fasted state), read-out: Solubility): < 3000 µg/mL | Crystal form / crystallinity in the vehicle ([7]; FaSSIF): nearly amorphous | solubility at 0.5 h [7, 20]: 550 µg/mL | solubility at 24 h [7, 20]: 380 µg/mL | Solubility ([7]; FeSSIF (simulated intestinal fluid in fed state), fessif, thermodynamic from solid, FeSSIF (simulated intestinal fluid in fed state), read-out: Solubility): < 3000 µg/mL | Crystal form / crystallinity in the vehicle ([7]; FeSSIF): nearly amorphous | solubility at 0.5 h [7, 21]: 10900 µg/mL | solubility at 24 h [7, 21]: 10200 µg/mL | Solubility ([7]; SGF (simulated gastric fluid), simulated gastric fluid, thermodynamic from solid, SGF (simulated gastric fluid), read-out: Solubility): > 5000 µg/mL | Solubility ([7]; water): < 3000 µg/mL | Crystal form / crystallinity in the vehicle ([7]; water): not changed | solubility at 0.5 h [7, 22]: 110 µg/mL | solubility at 24 h [7, 22]: 95 µg/mL | Solubility ([7]; water, listed as free base): less than 0.2 mg/mL
SMILES: [2H]C([2H])([2H])n1nc2c(c1C#N)-c1cnc(N)c(c1)O[C@H](C)c1cc(F)ccc1C(=O)N(C)C2 [compound A crystal form I, (10R)-7-amino-12-fluoro-2-(methyl-d3)-10,16-dimethyl-15-oxo-10,15,16,17-tetrahydro-2H-8,4-(metheno)pyrazolo[4,3-h][2,5,11]benzoxadiazacyclotetradecine-3-carbonitrile]
